Measurements as given in ChEMBL document CHEMBL1287791, “In silico identification and biochemical evaluation of novel inhibitors of NRH:quinone oxidoreductase 2 (NQO2)” (Bioorg Med Chem Lett, 2010).
Activity calls are given as the source filed them. The rule behind the calls is not given here.

Columns and labels:
[1] = molecular target: T1, Ribosyldihydronicotinamide dehydrogenase [quinone] (Homo sapiens) (UniProt P16083); experiment: Inhibition of human recombinant NQO2 at 100 uM
T1 sequence (whole entry): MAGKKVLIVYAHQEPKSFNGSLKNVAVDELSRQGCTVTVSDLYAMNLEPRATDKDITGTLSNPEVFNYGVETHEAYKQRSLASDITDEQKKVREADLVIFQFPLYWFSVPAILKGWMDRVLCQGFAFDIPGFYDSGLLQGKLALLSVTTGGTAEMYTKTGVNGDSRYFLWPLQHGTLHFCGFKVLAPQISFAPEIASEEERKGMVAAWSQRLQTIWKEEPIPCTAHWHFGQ

[2] = molecular target: T2, Ribosyldihydronicotinamide dehydrogenase [quinone] (Homo sapiens, UniProt P16083); experiment: Inhibition of human recombinant NQO2
T2 sequence (P16083 whole entry): T1 sequence (whole entry)

[3] = molecular target: NAD(P)H dehydrogenase [quinone] 1 (Homo sapiens, UniProt P15559); experiment: Inhibition of human recombinant NQO1
Chain of NAD(P)H dehydrogenase [quinone] 1 (P15559 whole entry): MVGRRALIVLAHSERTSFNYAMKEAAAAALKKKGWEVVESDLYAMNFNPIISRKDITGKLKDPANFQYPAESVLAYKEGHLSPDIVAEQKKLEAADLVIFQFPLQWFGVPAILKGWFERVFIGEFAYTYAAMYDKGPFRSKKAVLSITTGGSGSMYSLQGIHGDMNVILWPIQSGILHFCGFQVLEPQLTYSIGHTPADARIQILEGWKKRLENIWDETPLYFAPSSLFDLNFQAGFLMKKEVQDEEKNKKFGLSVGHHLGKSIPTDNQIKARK

For `CCN(CC)CCNC(=O)c1c2c(nc3ccccc13)CCCC2`, the inhibition [1] was “inactive”.
For `CCN(CC)CCCC(C)Nc1ccnc2cc(Cl)ccc12` (stereo not drawn) [CHLOROQUINE], the inhibition [1] was “inactive” and the IC50 [2] was 1.5 µM.
With `N=C(N)c1ccc(/N=N/c2cc(/C=C/c3ccccc3)ccc2O)cc1` the inhibition [1] was “inactive” and the IC50 [2] was 1.4 µM.
With `Cn1c2ccccc2c2c3ccc[n+](C)c3ccc21` the inhibition [1] was “inactive” and the IC50 [2] was 5.5 µM.
With `C(=C\Nc1ccc(-c2ccccc2)cc1)/C=N/c1ccc(-c2ccccc2)cc1` the inhibition [1] was “inactive” and the IC50 [2] was 9.7 µM.
In the case of `N=C(N)c1ccc(/N=N/c2cc(/N=N/c3ccccc3)ccc2O)cc1`, the inhibition [1] is reported as “inactive” and the IC50 [2] is reported as 1.8 µM.
`Fc1ccc2c(c1)SC1Oc3ccccc3-c3c1c-2nn3-c1ccccc1` (stereo not drawn) was tested, and the inhibition [1] was “inactive”.
With `CN(C)c1ccc(/C=c2\c3ccccc3n3c2cc(-c2ccccc2)[n+]3C)cc1` the inhibition [1] was “inactive” and the IC50 [2] was 1.7 µM.
`Cc1ccc(-c2cn3c(nc4ccccc43)c(-c3ccccc3)n2)cc1` was tested, and the inhibition [1] was “inactive”.
`COc1ccc(/C(Cl)=C(/C=O)c2cc(OC)c(OC)c(OC)c2)cc1OC` was tested, and the inhibition [1] was “inactive” and the IC50 [2] was 22 µM.
With `CC(/C=C/C(=O)c1sc(-n2nc(-c3ccccc3)cc2-c2ccccc2)nc1C)=C\c1ccccc1` the IC50 [2] was 3.8 µM.
With `CCN(CC)Cc1cc(Nc2c3ccccc3nc3c4ccccc4n(C)c23)ccc1O` the inhibition [1] was “inactive” and the IC50 [2] was 3.5 µM.
With `Oc1ccc(-c2ccc(O)cc2O)c(O)c1` the inhibition [1] was “inactive”.
`Cn1cc/c(=N\N=c2/ccn(C)c3ccccc23)c2ccccc21` was tested, and the inhibition [1] was “inactive” and the IC50 [2] was 6.2 µM.
Molecule `Oc1ccccc1C(=NNc1ccccc1)c1ccccc1O` has an IC50 [3] of 3 µM and an IC50 [2] of 3.9 µM.
With `Clc1ccc(-c2nc3ccc4ccccc4c3c3c2CCCC3)cc1` the inhibition [1] was “inactive”.
For `c1ccc2c3ccn4ccc5c6ccccc6[nH]c5c4c-3nc2c1`, the inhibition [1] was “inactive” and the IC50 [2] was 2.9 µM.
`Cc1c2ccnc(-c3ccccc3)c2cc2c1[nH]c1ccccc12` was tested, and the inhibition [1] was “inactive” and the IC50 [2] was 2.1 µM.
In the case of `O=C(NCCc1ccccc1)c1ccc2ccccc2n1`, the inhibition [1] is reported as “inactive”.
For `N/N=c1\c2ccccc2c2ccc3c4ccccc4/c(=N\N)c3c12`, the inhibition [1] was “inactive”.
In the case of `Clc1ccc2nc3c(c(-c4ccccc4)nn3-c3ccccc3)c(-c3ccccc3)c2c1`, the inhibition [1] is reported as “inactive”.
In the case of `Oc1ccc2ccccc2c1/N=N/c1ccc(F)cc1`, the inhibition [1] is reported as “inactive”.
In the case of `c1ccc2cc(-c3cc(-c4cc(-c5ccc6ccccc6c5)on4)no3)ccc2c1`, the inhibition [1] is reported as “inactive”.
`Cc1nc(-n2nc(-c3ccccc3)cc2-c2ccccc2)sc1C(=O)/C=C/c1ccc(Cl)cc1` was tested, and the IC50 [2] was 5.3 µM.
In the case of `COc1cc(NC(C)CCCN)c2ncccc2c1` (stereo not drawn) [PRIMAQUINE], the inhibition [1] is reported as “inactive” and the IC50 [2] is reported as 7.5 µM.
For `Cc1cc2c(ccc3c2ccc[n+]3C)[nH]1`, the inhibition [1] was “inactive” and the IC50 [2] was 2.1 µM.
In the case of `Oc1cc(O)c2ccccc2c1`, the inhibition [1] is reported as “inactive” and the IC50 [2] is reported as 3.3 µM.
`C(=N\NC1=NCCN1)/c1c2ccccc2c(/C=N/NC2=NCCN2)c2ccccc12` was tested, and the inhibition [1] was “inactive”.
For `C(=N\c1ccc(-c2cc(-c3ccccc3)nc3ccc4ccccc4c23)cc1)/c1ccccc1`, the inhibition [1] was “inactive”.
In the case of `COc1cc2cc(-c3cc(OC)c(OC)c(OC)c3)c3c(c2cc1OC)CNC3`, the inhibition [1] is reported as “inactive” and the IC50 [2] is reported as 2.7 µM.
With `CCN1/C(=C/c2ccc3ccccc3[n+]2CC)C=Cc2ccccc21` the inhibition [1] was “inactive” and the IC50 [2] was 2.7 µM.
For `CN(CCc1ccccn1)c1ccc2c(c1)Cc1ccccc1-2`, the inhibition [1] was “inactive”.
For `Cc1nc(-n2nc(-c3ccccc3)cc2-c2ccccc2)sc1C(=O)/C=C/c1cccc([N+](=O)[O-])c1`, the IC50 [2] was 6.5 µM.
With `COc1ccc(/C(C#N)=C\c2cc(OC)c(OC)c(OC)c2)cc1` the IC50 [3] was 40 µM and the IC50 [2] was 20 µM.
In the case of `CN1CC(c2ccccc2)=CC2=C1C=CC(=N)/C2=N\N`, the inhibition [1] is reported as “inactive” and the IC50 [2] is reported as 2 µM.
In the case of `Cc1nc(-n2nc(-c3ccccc3)cc2-c2ccccc2)sc1C(=O)/C=C/c1ccccc1`, the IC50 [2] is reported as 5.8 µM.
In the case of `CC(=O)CCNc1ccc(-c2cc(-c3ccc(N(C)C)cc3)nc3ccc4ccccc4c23)cc1`, the inhibition [1] is reported as “inactive”.
In the case of `O=[N+]([O-])c1ccc(N/N=C/c2c(Cl)n(-c3ccccc3)c3ccccc23)c([N+](=O)[O-])c1`, the inhibition [1] is reported as “inactive”.
For `C(=C\c1c[nH]c2ccccc12)/c1nccc2ccccc12`, the inhibition [1] was “inactive” and the IC50 [2] was 1.8 µM.
In the case of `CCn1c2ccccc2c2cc(N)c(/N=N/c3ccc([N+](=O)[O-])cc3)cc21`, the inhibition [1] is reported as “inactive” and the IC50 [2] is reported as 5 µM.
With `O=C(C(=O)c1cc(-c2ccccc2)nc2ccc3ccccc3c12)c1ccccc1` the inhibition [1] was “inactive”.
`COc1cc2cc(-c3cc(OC)c(OC)c(OC)c3)c3c(c2cc1OC)CNC3=O` was tested, and the inhibition [1] was “inactive” and the IC50 [2] was 2 µM.
In the case of `Cc1nc(-n2nc(-c3ccccc3)cc2-c2ccccc2)sc1C(=O)/C=C/c1ccc([N+](=O)[O-])cc1`, the IC50 [2] is reported as 6 µM.
In the case of `O=[N+]([O-])c1ccc(/C=C/c2cc(-c3ccccc3)nc3ccc4ccccc4c23)cc1`, the inhibition [1] is reported as “inactive” and the IC50 [2] is reported as 9.6 µM.
`COc1cc(/C=C/c2ccc(OC)c(O)c2)cc(OC)c1` was tested, and the IC50 [2] was 15 µM.
For `c1ccc(/N=C2\SC(=NNc3ccccc3)S\C2=N/c2ccccc2)cc1`, the inhibition [1] was “inactive”.
In the case of `Cc1ccc(C(=N)c2ccccc2Cc2cccc3ccccc23)c2ccccc12`, the inhibition [1] is reported as “inactive”.
Work on `Cc1ccc(/C=C/C(=O)c2sc(-n3nc(-c4ccccc4)cc3-c3ccccc3)nc2C)cc1` yielded an IC50 [2] of 3.2 µM.
Molecule `Fc1ccccc1C1CC(c2ccc3ccccc3c2)=Nc2ccccc2S1` (stereo not drawn) has an IC50 [3] of 0.39 µM.
In the case of `O=[N+]([O-])c1ccc(-n2nc3ccc4c(no[n+]4[O-])c3n2)cc1`, the inhibition [1] is reported as “inactive”.
`c1ccc2sc(-c3c4ccccc4cc4ccc5ccccc5c34)cc2c1` was tested, and the IC50 [3] was 1.1 µM and the IC50 [2] was 6 µM.
In the case of `C#CCN(Cc1ccc2nc(-c3ccccc3)c(Cl)nc2c1)c1cc(OC)c(OC)c(OC)c1`, the inhibition [1] is reported as “inactive”.
For `CN(C)c1ccc(/C=c2\c3cc([N+](=O)[O-])ccc3n3c2cc(-c2ccccc2)[n+]3C)cc1`, the inhibition [1] was “inactive” and the IC50 [2] was 5 µM.
For `c1ccc(-c2sc(-c3ccccc3)c3c2C2CCC3C2)cc1`, the inhibition [1] was “inactive”.
With `Clc1ccc(-c2cn3c(nc4ccccc43)c(-c3ccccc3)n2)cc1` the inhibition [1] was “inactive”.
`C/C(=N\NC(=O)c1ccncc1)c1sc(-n2nc(-c3ccccc3)cc2-c2ccccc2)nc1C` was tested, and the inhibition [1] was “inactive”.
`Cc1nc(-n2nc(-c3ccccc3)cc2-c2ccccc2)sc1C(=O)/C=C/c1ccc(Cl)c(Cl)c1` showed an IC50 [2] of 4.9 µM.
`CN(C)c1ccc(NN=C2SC(=N\c3ccccc3)/C(=N/c3ccccc3)S2)cc1` was tested, and the inhibition [1] was “inactive”.
`N=C(N)c1ccc(/N=N/c2c(O)c(C(=O)Nc3ccccc3)cc3ccccc23)cc1` was tested, and the inhibition [1] was “inactive” and the IC50 [2] was 6 µM.
With `Cc1ccc2c(c1)-c1c3c(nn1-c1ccccc1)-c1ccccc1SC3O2` (stereo not drawn) the inhibition [1] was “inactive”.
In the case of `Cc1ccc(-n2cc(-c3ccc(Cl)cc3)c3c2N=CN2N=C(c4cccs4)NC32)cc1` (stereo not drawn), the inhibition [1] is reported as “inactive”.
For `C1=c2ccccc2=C2C(=C(c3ccccc3)C(c3ccccc3)=NN2c2ccccc2)S1`, the inhibition [1] was “inactive”.
`Cc1cc(NCCCCCCNc2cc(C)nc3ccc(N)cc23)c2cc(N)ccc2n1` was tested, and the inhibition [1] was “inactive” and the IC50 [2] was 1.9 µM.
With `c1ccc2c(-c3ccsc3)c3c(ccc4ccccc43)cc2c1` the inhibition [1] was “inactive” and the IC50 [2] was 5.1 µM.
Molecule `Oc1cc(O)cc(-c2c(O)cc(O)cc2O)c1` has an IC50 [3] of 10 µM.
